Experimental data reported in patent US5395611A, “Phenolic amine depigmenting and antimelanoma agents” (The Governors of the University of Alberta, priority 1992, dated 1995).
“Also recorded” adds a separate entry of the source.

Key:
melanocytes = experiment: Light and electron microscopy of follicular melanocytes; format: in vivo, mice; conditions: for Cytotoxicity for follicular depigmentation: conclusion in words; for Electron microscopy of melanocytes/melanosomes: 10 days
Procedure: In […] of 4 mice (1 control and 1 for each compound) were treated daily with the control or compound injected i.p. The compounds tested were 4-S-CAP, N-Ac-4-S-CAP and α-Me-4-S-CAP. Samples of skin and regrowing hair follicles were excised under brief general anaesthesia on day 10 (late anagen phase), fixed in Karnovsky's solution (2.5% glutaraldehyde and 2.5% paraformaldehyde in 011M cacodylate buffer), and refixed in 1% osmium tetroxide in cadodylate buffer. Tissues were stained en bloc with 1.5% uranyl acetate in o.1M veronal buffer for 30 min, dehydrated in graded ethanol solutions, embedded in epoxy resin, and sectioned with a Potter-Blum ultramicrotome MT II. Sections 1.0 μm thick were stained with methylene blue for light microscopy, thin sections were stained with led citrate for electron microscopy.

in vivo = conditions: mouse
Procedure: 3:1-85 1972. In accordance with this Protocol, ten to fifteen mice were used in each test group. They were weighed and randomized at day one after s.c. inoculation of B16 melanoma cells. From day five, the phenolic melanin precursors were administered i.p. daily for nine days. The test compounds were dissolved in normal saline, and sterilized by heating to 100° C. for 2 minutes. […] They were administered j.p. with the following doses: 400 mg/Kg - 4-S-CAP; 200 to 300 mg/Kg - 4-S-CAP; and 200 to 1200 mg/Kg - N-Ac-4-S-CAP. A catalytic amount of L-dopa, 25 mg/Kg and antidecarboxylase, carbidopa, 400 mg/Kg, were also administered. Carbidopa was given one hour prior to L-dopa administration. DTIC (NSC 4538) was used as a control drug at a dose of 60 mg/Kg. Acute toxicity of 4-S-CP and 4-S-CAP was evaluated from 100 to 1600 mg/Kg.
The B16 mouse melanoma was maintained by s.c. inoculation of tumour cells into the back of C57BL7J mice (5 to 6 weeks, female). […] Briefly, excised tumours were homogenized in normal saline. The homogenized tumour cells were then passed through a sterile 80 mesh stainless steel screen, washed with normal saline, centrifuged (500 g. for 10 minutes) and resuspended in normal saline. Suspensions of viable melanoma cells at the concentration of 1×10^6 per 0.1 ml were inoculated s.c. into both the right and left inguinal areas of C57BL/6J mice (female, 5 to 6 weeks old, 18 to 20 gm).

black hair follicles = experiment: Depigmentation of new hair (eumelanin/PTCA content); format: in vivo, C57BL/6J black mice; conditions: for Depigmentation / PTCA Content: 300 mg/kg daily for 14 days, hair day 22; for Depigmentation of new growth of black hair follicles: in words
Procedure: Female progeny were used in this testing when approximately 8 weeks old and weighing 17 grams.
Thirty mice were randomized into 6 groups of 5 (1 control and 1 for each compound). Starting on day 1, daily for 14 days the agent was injected i.p. or was infiltrated s.c. in an area where hair follicles had been plucked; the dose was 300 mg/kg body weight.
In the same 30 mice, hair follicles were harvested on day 22 (early telogen phase) and their eumelanin content analyzed. […] Briefly, a 10-mg hair sample is homogenized in water at a concentration of 10 mg/ml; the 200-μl homogenate is transferred to a screw-capped test tube, mixed with 1M H2 SO4 (800 μL) and oxidized with 3% KMnO4. The product, pyrrole-2,3,5-tricarboxylic acid (PTCA), is analyzed by HPLC with a UVL detector; samples are measured in duplicate. The eumelanin content is expressed as PTCA (ng/mg) against the PCTA content of BALB/c albino mice as control (≤10 ng/mg, the background value with our method, in which 1 ng corresponds roughly to a eumelanin content of 50 ng), and the degree of depigmentation is expressed as a percentage: (PTCA content of control sample minus PTCA content of experimental sample)/(PCTA content of control sample)×100.

[1] = hydroquinone preparations; cited from earlier work
skin = conditions: cited from earlier work
melanoma = conditions: in words; cited from earlier work
B16 melanoma = experiment: In vivo growth inhibition of s.c. inoculated B16 melanoma; parameters: species or system mouse
Procedure: Briefly, excised tumours were homogenized in normal saline.
The in vivo antimelanoma effect of the compounds were evaluated by percent growth inhibition of inoculated tumour (% g.i.). The percent g.i. was computed from the mean tumour volume at day 12 or 13 of the experiments; i.e., 100× (1- treated group/control group). Tumour volume was calculated by the following formula:
tumour volume=long axis×(short axis)^2 ×1/2.

mushroom tyrosinase = experiment: Enzyme kinetics for tyrosinase; format: biochemical; conditions: in words
Procedure: (§1) Mushroom tyrosinase (400 units/mg) and plasma MAO (1000 units/gm) were obtained from Sigma Chemical Co. (St. Louis, Mo., USA). A reaction mixture consisted of a substrate of 7 to 8 different concentrations (40 to 500 μM for mushroom tyrosinase and 20 to 200 μM for MAO) and of either mushroom tyrosinase (2.5 μg) or MAO (10 μg) in 1.0 mL of 0.05M sodium phosphate buffer, pH 6.8 and 7.4 respectively. The reactions were carried out at 37° C. in a shaking water bath, and stopped by taking 100 μL of the reaction mixture and adding it to 900 μL of 0.4M HCLO4. The disappearance of substrate was followed using HPLC (high pressure liquid chromatography) Km and Vmax values were calculated from the Lineweaver-Burk plots.
^a mushroom tyrosinase; 11 unit/ml of tyrosinase was used. One enzyme
unit will cause an increase in A280 of 0.001 per min at pH 6.8 at
25° C. using Ltyrosine as substrate.

[2] = Urinary excretion after i.p. injection (metabolic assay); format: in vivo, mice
Procedure: Fifteen mice randomly divided into three groups of five were injected i.p. with a test agent (300 mg/kg) dissolved in N saline solution. Group 1 were injected with 4-S-CAP, group 2 with N-Ac-4-S-CAP, group 3 were controls. The mice are kept in metabolic cages; their urine is collected 3, 8 and 24 hr after injection, and the 4-S-CAP and N-Ac-4-S-CAP content is measured by HPLC in a system consisting of a Waters 600E liquid chromatography, with a Bondapak C18 column (3.0×300 mm; particle size, 10 μm) and a Waters 460 electrochemical detector. Mobile phase: 0.1M potassium phosphate buffer, pH 2.1, containing 0.1 mM Na2 EDTA methanol, 80:20 (v/v); column temperature, 60° C.; flow rate 1.0 ml/min. Urine samples are hydrolysed with 0.1M HCl before assay, and the phenols are detected at 850 mV against an Ag/AgCl reference electrode.

B16F10 melanoma colonies = experiment: Melanoma-colony formation in the lungs; format: in vivo, mouse
Procedure: Murine B16F10 melanoma cell line with a strong metastatic property to form tumour colonies in the lungs was obtained from Dr. Longenecker, Department of Immunology, University of Alberta. Such cell line is well recognized and readily available as reported in Miura et al, supra. The cells were grown in T-75 flasks in dulbecco's MEM available from Gipco Lab Inc., Grand Island, N.Y., supplemented with 10% fetal calf serum, also obtained from Gipco, penicillin (100 μ/ml) and streptomycin (100 μg/ml). The cells were incubated at 37° C. in humidified atmosphere of 5% CO2 in air. […] Viable cells were identified by trypan blue dye exclusion and counted. The cell suspension was diluted to the desired concentration. […] On day zero, the mice were inoculated via the lateral tail vein with 5×10^4 cells in 0.2 ml of N saline. The test drugs were dissolved in normal saline, sterilized by membrane filtration, and administered in a dose of 300 mg/Kg (4 -S-CAP) or 900 mg/Kg (N-Ac-4-S-CAP); starting on day five, the control solution or drug was injected i.p. daily for 14 days. On day 26, the mice were killed by cervical dislocation, their lungs were removed, and the number of melanoma colonies was counted under a dissecting microscope. The results were expressed as percentage reduction in the number of colonies: [a-b/a]×100, where a=colonies in control group and b=colonies in experimental group.

[3] = system: plasma monoamine oxidase (MAO); experiment: Enzyme kinetics for monoamineoxidase (plasma MAO); format: biochemical; conditions: in words
Procedure: as §1

[4] = acute toxicity, evaluated 100 to 1600 mg/Kg (Miura et al); cited from earlier work
follicular melanocytes = conditions: in words; cited from earlier work

## CC(N)CSc1ccc(O)cc1 (stereo not drawn) [α-Me-4-S-CAP]
melanocytes
  Cytotoxicity for follicular depigmentation: greatest cytotoxicity for follicular depigmentation
melanocytes; i.p.
  Electron microscopy of melanocytes/melanosomes: contained immature melanosomes at stages II and III
In vivo
  Single dose toxicity level: ~500 mg/kg of body weight
Black hair follicles; i.p., 300 mg/kg
  Depigmentation: 89%
Black hair follicles
  Depigmentation of new growth of black hair follicles: i.p. administration induced more depigmentation than s.c.
Black hair follicles; s.c. administration, plucked area
  Irritation of the skin: some irritation of the skin in the plucked area
Black hair follicles; s.c., 300 mg/kg
  Depigmentation: 58%

## NCCCSc1ccc(O)cc1 [4-S-HomoCAP]
Black hair follicles
  Depigmentation of new growth of black hair follicles: much more depigmentation when given s.c. than i.p.
Black hair follicles; s.c.
  PTCA Content: 397.7 ± 279.3 ng/mg

## CN(C)CCSc1ccc(O)cc1 [N,N-DiMe-4-S-CAP]
Black hair follicles; i.p.
  Depigmentation: 7.3%
  PTCA Content: 1009.0 ± 193.5 ng/mg
Black hair follicles
  Depigmentation of new growth of black hair follicles: the lowest; also recorded: no significant depigmentation
Black hair follicles; listed as N,N-Di-Me-4-S-CAP
  Depigmentation of new growth of black hair follicles: no visible changes in pigmentation in new follicles
Black hair follicles; s.c.
  Depigmentation: 6.1%
  PTCA Content: 1023.4 ± 110.1 ng/mg

## Oc1ccc(O)cc1 [hydroquinone]
[1]
  Stability: very unstable
skin; hydroquinone preparations
  Skin irritation: cause skin irritation
skin; prolonged period and high concentration
  Permanent whitening of the skin: can also cause permanent whitening of the skin

## COC(=O)C(N)CSc1ccc(O)cc1 (stereo not drawn) [methyl ester of 4-S-CP]
melanoma
  Inhibition of melanoma growth: some inhibition of melanoma growth, although not as active as the 4-S-CAP

## CC(=O)NCCSc1ccc(O)cc1 [N-Ac-4-S-CAP, N-ACETYL-4-S-CYSTEAMINYLPHENOL]
melanocytes
  Cytotoxicity for follicular depigmentation: greatest cytotoxicity for follicular depigmentation
melanocytes; i.p.
  Electron microscopy of melanocytes/melanosomes: no melanocytes or melanosomes were visible
melanocytes; i.p., day 10
  Light microscopy of hair follicles: neither functioning melanocytes nor melanin pigments remained in the follicles
B16 melanoma; Experiment I, 200 mg/Kg
  % Gi (growth inhibition): 39.8%
B16 melanoma; Experiment I, 400 mg/Kg
  % Gi (growth inhibition): 57.3%
B16 melanoma; Experiment I, 600 mg/Kg
  % Gi (growth inhibition): 63.18%
B16 melanoma; Experiment I, 800 mg/Kg
  % Gi (growth inhibition): 74.4%
B16 melanoma; Experiment II, 200 mg/Kg
  % Gi (growth inhibition): 32.0%
  Tumour Volume: 370 ± 37 mm^3
B16 melanoma; Experiment II, 400 mg/Kg
  % Gi (growth inhibition): 34.0%
B16 melanoma; Experiment II, 800 mg/Kg
  % Gi (growth inhibition): 63.4%
B16 melanoma; Experiment II, 1200 mg/Kg
  % Gi (growth inhibition): 70.7%
B16 melanoma; in words
  Growth inhibition of B16 melanoma: dose-dependent linear growth inhibition; also recorded: significant reduction in size of s.c. inoculated melanoma
Mushroom tyrosinase
  Substrate for tyrosinase: tyrosinase substrate
[2]; 3 h after i.p. injection, 5.2 mg/mouse, unit printed ng
  Urinary excretion of unchanged compound, amount: 7.23e-07 ± 2.7e-08 mg
[2]; 8 h after i.p. injection, 5.2 mg/mouse
  Urinary excretion of unchanged compound, amount: 1.034 ± 0.033 mg
[2]; 24 h after i.p. injection, 5.2 mg/mouse
  Urinary excretion of unchanged compound, amount: 1.089 ± 0.028 mg
[2]; urine, i.p. injection
  i.p. dose excreted as 4-S-CAP, amount: 0.066 ± 0.003 mg
[2]; urine, ip, 300 mg/kg, 3 h after i.p. injection, 5.2 mg/mouse, read-out: Urinary excretion of unchanged compound, % of dose
  dose excreted at 3 h: 13.9%
[2]; urine, ip, 300 mg/kg, 8 h after i.p. injection, 5.2 mg/mouse, read-out: Urinary excretion of unchanged compound, % of dose
  dose excreted at 8 h: 19.8%
[2]; urine, ip, 300 mg/kg, 24 h after i.p. injection, 5.2 mg/mouse, read-out: Urinary excretion of unchanged compound, % of dose
  dose excreted at 24 h: 20.4%
B16F10 melanoma colonies; 900 mg/kg i.p. daily for 14 days, day 26
  Colonies, % control: 24.9%
B16F10 melanoma colonies; in words
  Number of B16F10 melanoma colonies: significantly reduced
B16F10 melanoma colonies; summary statement
  Melanoma lung colonies reduced to % of original volume: 25%
In vivo
  Single dose toxicity level: ~1,400 mg/kg of body weight
In vivo; ip
  LD50: ≤ 1400 mg/kg
  MTD: 1200 mg/kg
Black hair follicles
  Depigmentation of new growth of black hair follicles: most marked; also recorded: no statistically significant difference in melanin content between hair follicles with N-Ac-4-S-CAP and control albino mice
[3]
  Substrate for plasma MAO: not, however, a substrate for plasma MAO

## NC(CSc1ccc(O)cc1)C(=O)O (stereo not drawn) [4-S-CP, 4-S-cysteinylphenol]
[4]
  Lethal dose: 600 mg/kg
melanoma
  Inhibition of melanoma growth: some inhibition of melanoma growth, although not as active as the 4-S-CAP
Follicular melanocytes
  Effect on black hair follicles / black hair: depigmentation of black hair as manifested by loss of functioning melanocytes
